In patent US20120214824A1, “PROTEOSTASIS REGULATORS” (priority 2010, published 2012):

Tests used:
Assay in all cases: Multigene assay (QuantiGene Plex 2.0), mouse MEF cell line
Format in all cases: cell-based
Conditions in all cases: 6 hours post-compound treatment
BCL2 = tested on: BCL2
Protocol: (§1) This assay used the QuantiGene Plex 2.0 Reagent System from Affymetrix. This assay combines the use of bDNA (branch DNA) and xMAP magnetic capture beads from Luminex Technologies to quantitatively and simultaneously detect multiple mRNA transcripts per well. The overall procedure was performed according to the QuantiGene Plex 2.0 Reagent System instruction manual from Affymetrix.
(§2) Cells were seeded at a density of 12,000 cells/well in 96-well plates with an overnight incubation at 37° C., 5% CO2. Cells were treated with serially diluted compounds in a 7-point dose dependent manner. Cell lysis with 50% [v/v] Panomics Lysis Mixture (Lysis Mixture+10 μl/ml 25 Proteinase K) was performed 6 hours post-compound treatment. Lysed cells were heated at 50° C. to ensure appropriate lysing and the plates were then frozen at −80° C. Cell lysates, thawed at room temperature on the day of the assay, were pooled with mouse 8-gene multiplex probe sets and with 8 different sets of magnetic capture beads (Luminex Technology, Austin, Tex.) in a 100 μl/well volume. Biomek FX was used at every liquid transfer step. The eight plates containing lysate-probe-bead mixtures were incubated at 54° C.±1° C. on a shaking platform for an overnight incubation in the dark (18-20 hours). The following day the hybridization plates were compressed by transferring the hybridized lysates into a single magnetic capture plate. The plate was kept on a magnet to hold the beads and then washed with Panomics Wash Buffer 2.0 on a BioTek ELx405 select plate washer to remove any unbound sample. This step was followed by serial hybridizations and washings of the bDNA pre-amplifier (1 hour, 50° C.), bDNA amplifier (1 hour, 50° C.), label probe (1 hour, 50° C.), and streptavidin-phycoerythrin (SAPE, 30 minutes, room temperature). (Zhang, A. et al. Small interfering RNA and gene expression analysis using a multiplex branched DNA assay without RNA purification. J Biomol Screen 10, 549-56 (2005)). The plate was then washed with SAPE wash buffer to remove unbound SAPE and each well was analyzed with the Luminex FlexMap3D (Luminex, Austin, Tex.). SAPE fluorescence measured from each bead was proportional to the number of mRNA transcripts captured by the beads (Zheng, Z., Luo, Y. & McMaster, G. K. Sensitive and quantitative measurement of gene expression directly from a small amount of whole blood. Clin Chem 52, 1294-302 (2006)). Fold changes in gene expression were obtained for each gene per well by normalizing the raw data first to the DMSO control and then to a housekeeping gene (TBP-TATA binding protein or Tub1-alpha-tubulin).

DDIT3 = tested on: DDIT3
Protocol: as §1, §2

GCLM = tested on: GCLM
Protocol: as §1, §2

HMOX = tested on: HMOX
Protocol: as §1, §2

HSPA1a = tested on: HSPA1a
Protocol: as §1, §2

HspA5 = tested on: HspA5
Protocol: as §1, §2

TUB1 = tested on: TUB1
Protocol: as §1, §2

Row | Compound | BCL2 gene induction (BCL2; Table 4b) | DDIT3 gene induction (DDIT3; Table 4a) | GCLM gene induction (GCLM; Table 4a) | HMOX gene induction (HMOX; Table 4b) | HSPA1a gene induction (HSPA1a; Table 4b) | HspA5 gene induction (HspA5; Table 4b) | TUB1 gene induction (TUB1; Table 4a) | other results
1 | CCn1c2c(c(=O)[nH]c1=O)C(c1cccc3ccccc13)C1=C(N2)c2ccccc2C1=O (stereo not shown) [B] |  |  |  |  |  |  |  | BCL2 gene induction (BCL2; Table 6): — (— Indicates less than 2 fold induction); DDIT3 gene induction (DDIT3; Table 6): + (+ indicates a induction of greater than 2 fold); GCLM gene induction (GCLM; Table 6): — (— Indicates less than 2 fold induction); HMOX gene induction (HMOX; Table 6): + (+ indicates a induction of greater than 2 fold); HSPA1a gene induction (HSPA1a; Table 6): + (+ indicates a induction of greater than 2 fold); HspA5 gene induction (HspA5; Table 6): — (— Indicates less than 2 fold induction); TUB1 gene induction (TUB1; Table 6): — (— Indicates less than 2 fold induction)
2 | N#CC1=C(N)Oc2[nH]nc(-c3ccccn3)c2C1c1cccs1 (stereo not shown) [drawing 29/2-Pyridyl/H/H/S] | − (− Indicates less than 2 fold induction) | − (− Indicates less than 2 fold induction) | + (+ indicates a induction of greater than 2 fold) | + (+ indicates a induction of greater than 2 fold) | − (− Indicates less than 2 fold induction) | − (− Indicates less than 2 fold induction) | − (− Indicates less than 2 fold induction) | 
3 | COC(=O)C1=C(C)Nc2c(c(=O)n(C)c(=O)n2C)C1c1ccc(F)cc1 (stereo not shown) [A] |  |  |  |  |  |  |  | BCL2 gene induction (BCL2; Table 6): + (+ indicates a induction of greater than 2 fold); DDIT3 gene induction (DDIT3; Table 6): + (+ indicates a induction of greater than 2 fold); GCLM gene induction (GCLM; Table 6): — (— Indicates less than 2 fold induction); HMOX gene induction (HMOX; Table 6): — (— Indicates less than 2 fold induction); HSPA1a gene induction (HSPA1a; Table 6): — (— Indicates less than 2 fold induction); HspA5 gene induction (HspA5; Table 6): — (— Indicates less than 2 fold induction); TUB1 gene induction (TUB1; Table 6): — (— Indicates less than 2 fold induction)
4 | CC1=C(C(=O)OCC(C)C)C(c2ccccc2OC(C)C)C2=C(CC(c3ccccc3)CC2=O)N1 (stereo not shown) [drawing 27/Me/COOCH2CHMe2/o-OCHMe2/H] |  |  |  |  |  |  |  | BCL2 gene induction (BCL2; Table 2b): − (− Indicates less than 2 fold induction); DDIT3 gene induction (DDIT3; Table 2a): + (+ indicates a induction of greater than 2 fold); GCLM gene induction (GCLM; Table 2a): − (− Indicates less than 2 fold induction); HMOX gene induction (HMOX; Table 2b): − (− Indicates less than 2 fold induction); HSPA1a gene induction (HSPA1a; Table 2b): − (− Indicates less than 2 fold induction); HspA5 gene induction (HspA5; Table 2b): − (− Indicates less than 2 fold induction); TUB1 gene induction (TUB1; Table 2a): − (− Indicates less than 2 fold induction)
5 | COCc1n[nH]c2c1C(c1cccs1)C(C#N)=C(N)O2 (stereo not shown) [drawing 29/CH2OMe/H/H/S] | − (− Indicates less than 2 fold induction) | − (− Indicates less than 2 fold induction) | + (+ indicates a induction of greater than 2 fold) | + (+ indicates a induction of greater than 2 fold) | − (− Indicates less than 2 fold induction) | − (− Indicates less than 2 fold induction) | − (− Indicates less than 2 fold induction) | 
6 | COc1ccc(C2CC(=O)C3=C(C2)NC(C)=C(C(=O)OCC(C)C)C3c2cccc(F)c2)cc1 (stereo not shown) [drawing 27/Me/COOCH2CHMe2/m-F/OMe] |  |  |  |  |  |  |  | BCL2 gene induction (BCL2; Table 2b): + (+ indicates a induction of greater than 2 fold); DDIT3 gene induction (DDIT3; Table 2a): − (− Indicates less than 2 fold induction); GCLM gene induction (GCLM; Table 2a): + (+ indicates a induction of greater than 2 fold); HMOX gene induction (HMOX; Table 2b): + (+ indicates a induction of greater than 2 fold); HSPA1a gene induction (HSPA1a; Table 2b): + (+ indicates a induction of greater than 2 fold); HspA5 gene induction (HspA5; Table 2b): − (− Indicates less than 2 fold induction); TUB1 gene induction (TUB1; Table 2a): − (− Indicates less than 2 fold induction)
7 | CCCc1n[nH]c2c1C(c1ccc(C)o1)C(C#N)=C(N)O2 (stereo not shown) [drawing 29/(CH2)2Me/Me/H/O] | − (− Indicates less than 2 fold induction) | − (− Indicates less than 2 fold induction) | + (+ indicates a induction of greater than 2 fold) | + (+ indicates a induction of greater than 2 fold) | − (− Indicates less than 2 fold induction) | − (− Indicates less than 2 fold induction) | − (− Indicates less than 2 fold induction) | 
8 | N#CC1=C(N)Oc2[nH]nc(C34CC5CC(CC(C5)C3)C4)c2C1c1cccs1 (stereo not shown) [drawing 29/1-Adamantyl/H/H/S] | − (− Indicates less than 2 fold induction) | − (− Indicates less than 2 fold induction) | + (+ indicates a induction of greater than 2 fold) | + (+ indicates a induction of greater than 2 fold) | − (− Indicates less than 2 fold induction) | − (− Indicates less than 2 fold induction) | − (− Indicates less than 2 fold induction) | 
9 | CCCc1n[nH]c2c1C(C1CC=CCC1)C(C#N)=C(N)O2 (stereo not shown) |  |  |  |  |  |  |  | BCL2 gene induction (BCL2; Table 5): — (— Indicates less than 2 fold induction); DDIT3 gene induction (DDIT3; Table 5): — (— Indicates less than 2 fold induction); GCLM gene induction (GCLM; Table 5): + (+ indicates a induction of greater than 2 fold); HMOX gene induction (HMOX; Table 5): + (+ indicates a induction of greater than 2 fold); HSPA1a gene induction (HSPA1a; Table 5): — (— Indicates less than 2 fold induction); HspA5 gene induction (HspA5; Table 5): — (— Indicates less than 2 fold induction); TUB1 gene induction (TUB1; Table 5): — (— Indicates less than 2 fold induction)
10 | Cc1ccsc1C1C(C#N)=C(N)Oc2[nH]nc(C(C)(C)C)c21 (stereo not shown) [drawing 29/CMe3/H/Me/S] | − (− Indicates less than 2 fold induction) | − (− Indicates less than 2 fold induction) | + (+ indicates a induction of greater than 2 fold) | + (+ indicates a induction of greater than 2 fold) | − (− Indicates less than 2 fold induction) | − (− Indicates less than 2 fold induction) | − (− Indicates less than 2 fold induction) | 
11 | Cc1n[nH]c2c1C(c1cccs1)C(C#N)=C(N)O2 (stereo not shown) [drawing 29/Me/H/H/S] | − (− Indicates less than 2 fold induction) | − (− Indicates less than 2 fold induction) | + (+ indicates a induction of greater than 2 fold) | + (+ indicates a induction of greater than 2 fold) | − (− Indicates less than 2 fold induction) | − (− Indicates less than 2 fold induction) | − (− Indicates less than 2 fold induction) | 
12 | COc1ccccc1C1C(C#N)=C(C)NC2=C1C(=O)CC(c1ccccc1)C2 (stereo not shown) [drawing 27/Me/CN/o-OMe/H] |  |  |  |  |  |  |  | BCL2 gene induction (BCL2; Table 2b): − (− Indicates less than 2 fold induction); DDIT3 gene induction (DDIT3; Table 2a): − (− Indicates less than 2 fold induction); GCLM gene induction (GCLM; Table 2a): − (− Indicates less than 2 fold induction); HMOX gene induction (HMOX; Table 2b): − (− Indicates less than 2 fold induction); HSPA1a gene induction (HSPA1a; Table 2b): + (+ indicates a induction of greater than 2 fold); HspA5 gene induction (HspA5; Table 2b): − (− Indicates less than 2 fold induction); TUB1 gene induction (TUB1; Table 2a): − (− Indicates less than 2 fold induction)
13 | CC(C)(C)c1n[nH]c2c1C(c1cccs1)C(C#N)=C(N)O2 (stereo not shown) [drawing 29/CMe3/H/H/S] | − (− Indicates less than 2 fold induction) | − (− Indicates less than 2 fold induction) | + (+ indicates a induction of greater than 2 fold) | + (+ indicates a induction of greater than 2 fold) | − (− Indicates less than 2 fold induction) | − (− Indicates less than 2 fold induction) | − (− Indicates less than 2 fold induction) | 
